Assay [1] deals with Adenosine receptors; A1 & A3 (Rattus norvegicus) (UniProt P25099+P28647). Put plainly: Ratio of selectivity for A3 and A1 receptors at rat brain.
Assay [2] deals with Adenosine receptor A2a (Rattus norvegicus, UniProt P30543).
Description: Displacement of [3H]-CGS- 21680 from adenosine A2a receptors of rat striatal membrane
The target of assay [3] is T1, Adenosine receptor A1 (Rattus norvegicus, UniProt P25099).
T1 sequence (P25099 whole entry): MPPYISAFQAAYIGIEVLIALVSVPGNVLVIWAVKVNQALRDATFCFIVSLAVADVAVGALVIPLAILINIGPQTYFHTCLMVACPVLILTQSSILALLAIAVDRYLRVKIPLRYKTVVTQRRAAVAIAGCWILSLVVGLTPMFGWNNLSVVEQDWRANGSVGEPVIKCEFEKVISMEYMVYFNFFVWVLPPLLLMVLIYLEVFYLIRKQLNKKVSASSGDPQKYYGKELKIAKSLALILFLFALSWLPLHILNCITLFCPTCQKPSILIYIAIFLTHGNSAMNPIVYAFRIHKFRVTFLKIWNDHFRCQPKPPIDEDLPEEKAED
Description: Displacement of [3H]PIA from adenosine A1 receptors of rat brain membrane

For assay [4], the target named is T2, Adenosine receptor A3 (Rattus norvegicus, UniProt P28647).
T2 sequence (P28647 whole entry): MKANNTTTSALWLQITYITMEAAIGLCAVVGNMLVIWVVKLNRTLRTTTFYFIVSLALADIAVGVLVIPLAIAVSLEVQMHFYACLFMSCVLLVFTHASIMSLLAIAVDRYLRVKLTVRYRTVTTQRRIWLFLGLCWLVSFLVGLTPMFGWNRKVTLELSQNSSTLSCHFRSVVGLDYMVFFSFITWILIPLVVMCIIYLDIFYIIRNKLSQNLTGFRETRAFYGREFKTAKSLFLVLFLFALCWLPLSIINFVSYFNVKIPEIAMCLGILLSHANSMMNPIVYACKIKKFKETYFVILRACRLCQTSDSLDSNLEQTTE
Put plainly: Displacement of [125I]AB-MECA from membranes of CHO cells stably transfected with the rat adenosine A3 receptor cDNA. The assay is classed as cell membranes.

Assay [5] addresses T3, Adenosine receptor A3 (Rattus norvegicus) (UniProt P28647).
T3 sequence (whole entry): T2 sequence (P28647 whole entry)
Put plainly: Tested for the binding affinity, for displacement of [125I]AB-MECA in membranes of CHO cells stably transfected with the rat A3-cDNA at the 3*10e-5 concentration (M). The assay is classed as cell membranes.

In assay [6] the target is T3, Adenosine receptor A3 (Rattus norvegicus). Put plainly: Tested for the binding affinity, for displacement of [125I]AB-MECA in membranes of CHO cells stably transfected with the rat A3-cDNA at the 10e-5 concentration (M). Type of assay: cell membranes.
For assay [7], the target named is Adenosine receptor A2a (Rattus norvegicus) (UniProt P30543). Put plainly: Tested for the binding affinity, for displacement of [3H]-CGS- 21680 in A2a receptors of rat striatal membrane at 10e-5 concentration (M).
Adenosine receptor A2a (Rattus norvegicus), sequence (P30543 whole entry): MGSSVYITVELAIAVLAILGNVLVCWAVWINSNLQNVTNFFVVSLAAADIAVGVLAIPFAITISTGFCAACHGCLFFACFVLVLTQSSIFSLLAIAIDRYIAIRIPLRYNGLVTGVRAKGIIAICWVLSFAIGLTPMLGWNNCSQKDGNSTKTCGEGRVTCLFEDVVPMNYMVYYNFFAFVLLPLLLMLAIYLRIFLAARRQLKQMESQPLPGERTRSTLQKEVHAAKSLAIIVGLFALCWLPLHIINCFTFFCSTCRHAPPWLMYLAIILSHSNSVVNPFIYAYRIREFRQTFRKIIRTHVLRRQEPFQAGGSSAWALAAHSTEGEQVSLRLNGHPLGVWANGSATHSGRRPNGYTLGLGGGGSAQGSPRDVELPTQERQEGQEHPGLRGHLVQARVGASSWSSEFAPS
Assay [8] concerns the target T3, Adenosine receptor A3 (Rattus norvegicus). Put plainly: Tested for the binding affinity, for displacement of [125I]AB-MECA in membranes of CHO cells stably transfected with the rat A3-cDNA at the 10e-4 concentration (M). The assay is classed as cell membranes.
In assay [9] the target is T4, Adenosine receptor A1 (Rattus norvegicus) (UniProt P25099).
T4 sequence (whole entry): T1 sequence (P25099 whole entry)
Put plainly: Tested for the binding affinity, for displacement of [3H]PIA in A1 receptors of rat brain membrane at 10e-4 concentration (M). The assay is classed as cell membranes.

Assay [10] has as its target Adenosine receptor A2a (Rattus norvegicus) (UniProt P30543). Put plainly: Tested for the binding affinity, for displacement of [3H]-CGS- 21680 in A2a receptors of rat striatal membrane at 10e-4 concentration (M).

The record followed here is ChEMBL document CHEMBL1127794, “Structure-activity relationships of 1,3-dialkylxanthine derivatives at rat A3 adenosine receptors” (J Med Chem, 1994).

Adenosine receptor A2a, sequence (P30543 whole entry): as above

As to `CCCn1c(=O)c2nc(-c3ccc(OCC(=O)O)cc3)[nH]c2n(CCC)c1=S`, the Ratio in [1] amounted to 126.

In the case of `Cn1c(=O)c2c(nc(/C=C/c3cccc(NC(=O)CCCCC(=O)O)c3)n2C)n(C)c1=O`, the Ki in assay [2] was 0.00722 µM; in assay [3], 6.51 µM; in assay [4], 234 µM. Moreover, the Ratio in assay [1] worked out at 36.

`CCCn1c(=O)c2[nH]c(C3CCCC3)nc2n(CCC)c1=O` [1,3-DIPROPYL-8-CYCLOPENTYLXANTHINE [DPCPX]]: the Ki in assay [4] stood at 5.29 µM.

As for `CCCCn1c(=O)c2nc(/C=C/C(=O)O)[nH]c2n(CCCC)c1=O`, the Ki is 16.5 µM in assay [2], 3.37 µM in [3] and 73.7 µM in [4]. For the same molecule, the Ratio in assay [1] stood at 22.

Consider `CCCCn1c(=O)c2nc(-c3ccc(OCC(=O)O)cc3)[nH]c2n(CCCC)c1=O`, for which the Ratio in assay [1] is 640.

Consider `CCCCn1c(=O)c2nc(CCCC(=O)O)[nH]c2n(CCCC)c1=O`, for which the Ki came to 113 µM in [2] and 133 µM in assay [4]. For the same molecule, the Ratio in assay [1] was determined as 9.4.

Consider `CCCCn1c(=O)c2nc(CCCCC(=O)O)[nH]c2n(CCCC)c1=O`, for which the inhibition in assay [5] was determined as 13%.

Consider `CCCn1c(=O)c2[nH]c(-c3ccc(OCC(=O)O)cc3)nc2n(CCC)c1=S`, for which the values for the Ki in [2] and in assay [4] were 0.226 µM and 6.77 µM, respectively.

As for `O=c1c2[nH]cnc2n(Cc2ccccc2)c(=O)n1Cc1ccccc1`, the inhibition in [6] stood at 20.3%; in [7], 3.6%. Further, the Ratio in assay [1] was greater than 10.

Consider `CCCn1c(=O)c2nc(-c3ccc(OCC(=O)O)cc3)[nH]c2n(CCC)c1=O`, for which, in assay [1], the Ratio was found to be 1300.

For `CCCCn1c(=O)c2[nH]c(CCCCC(=O)O)nc2n(CCCC)c1=O`, the figures for the inhibition constant (Ki) in [2] and in assay [3] were 20 µM and 5.27 µM, respectively.

`CCCn1c(=O)c2[nH]c(-c3ccc(OCC(=O)NCCNC(=O)CNCC(=O)O)cc3)nc2n(CCC)c1=O`: the Ki amounted to 0.157 µM in [2], 0.036 µM in [3] and 98 µM in assay [4].

For the molecule `Cn1c(=O)c2c(ncn2C)n(C)c1=O`, the inhibition in assay [8] turned out to be 30.1%.

`Cn1c(=O)c2c(ncn2Cc2ccccc2)n(C)c1=O` gave an inhibition in assay [8] of 29.7%. Moreover, in assay [2], the Ki was found to be 46 µM. The Ratio in [1] was greater than 10.

As for `CCCCn1c(=O)c2nc(CCC(=O)O)[nH]c2n(CCCC)c1=O`, the figures for the Ki in [2], in assay [3] and in assay [4] were 71.7 µM, 7.11 µM and 129 µM, respectively. The Ratio in assay [1] was determined as 18.

Turning to `CCCCn1c(=O)c2nc[nH]c2n(CCCC)c1=O`, in assay [1], the Ratio amounted to 290.

As to `Cn1c(=O)c2c(nc(/C=C/c3cccc(NC(=O)CCC(=O)O)c3)n2C)n(C)c1=O`, the inhibitory constant (Ki) worked out at 0.0129 µM in assay [2], 20.5 µM in assay [3] and 189 µM in assay [4]. Also, the Ratio in [1] was determined as 9.2.

In the case of `CCCn1c(=O)c2nc(-c3ccc(OCC(=O)NCC(=O)O)cc3)[nH]c2n(CCC)c1=O`, the results for the Ki in [2], in assay [3] and in assay [4] were 0.455 µM, 0.073 µM and 58.5 µM, respectively. In addition, the Ratio in [1] is 800.

In [4], `CCCn1c(=O)c2nc(-c3ccc(OCC(=O)NCCNC(=O)CN(CC(=O)O)C(=O)OCC4c5ccccc5-c5ccccc54)cc3)[nH]c2n(CCC)c1=O` showed a Ki of 21.7 µM. Moreover, in [1], the Ratio amounted to 1100.

For `Cn1c(=O)c2c(nc(/C=C/C(=O)O)n2C)n(C)c1=O`, in assay [4], the Ki came out at 130 µM. The Ratio in [1] was less than 1.

In the case of `CCCCCCn1c(=O)c2nc[nH]c2n(CCCCCC)c1=O`, the inhibition amounted to 9.2% in assay [6] and 14.3% in assay [7]. Further, the Ratio in assay [1] was greater than 10.

With `Cn1c(=O)c2c(nc(/C=C/c3cccc(NC(=O)CCCC(=O)O)c3)n2C)n(C)c1=O`, the Ki in assay [2] amounted to 0.0099 µM; in assay [3] it was 22.3 µM; in assay [4], 289 µM. The Ratio in assay [1] worked out at 13.

Consider `Cn1c(=O)c2nc(CCCC(=O)O)[nH]c2n(C)c1=S`, for which the inhibition constant Ki in assay [2] is 67.8 µM; in [3], 5.7 µM; in [4], 9.36 µM. Further, the Ratio in [1] was 1.6.

For the molecule `CCCCn1c(=O)c2nc[nH]c2n(Cc2ccccc2)c1=O`, the figures for the Ki in assay [2], in assay [3] and in assay [4] were 1.2 µM, 0.668 µM and 74.2 µM, respectively. In addition, the Ratio in assay [1] came to 110.

Turning to `CCCn1c(=O)c2nc(-c3ccc(C(=O)O)cc3)[nH]c2n(CCC)c1=O`, the inhibition constant (Ki) in [2] turned out to be 0.637 µM; in assay [4], 45.1 µM. For the same molecule, in assay [1], the Ratio is 230.

Consider `CCCCn1c(=O)c2c(nc(/C=C/C(=O)O)n2C)n(CCCC)c1=O`, for which the Ki in assay [2] was 23.2 µM; in [3], 5.91 µM; in [4] it was 127 µM. The Ratio in assay [1] was 21.

`CCCn1c(=O)c2nc(-c3ccc(/C=C/C(=O)O)cc3)[nH]c2n(CCC)c1=O` yielded a Ki in [2] of 0.8 µM.

For the molecule `CCCn1c(=O)c2nc(-c3ccc(S(=O)(=O)O)cc3)[nH]c2n(CCC)c1=O`, the Ratio in assay [1] stood at 640.

For `CCCn1c(=O)c2nc(-c3ccc(OCC(=O)NCCNC(=O)CN(CC(=O)O)C(=O)CCC(=O)O)cc3)[nH]c2n(CCC)c1=O`, the results for the Ki in assay [2], in [3] and in assay [4] were 9.22 µM, 2.86 µM and 99.9 µM, respectively. In assay [1], the Ratio came to 35.

Turning to `CCCn1c(=O)c2nc(-c3ccc(OCC(=O)O)cc3)[nH]c2n(Cc2ccc(N)c(I)c2)c1=O`, the Ki in [2] is 0.7 µM; in assay [3], 0.037 µM; in assay [4], 1.17 µM. For the same molecule, the Ratio in assay [1] amounted to 32.

For `CCCn1c(=O)c2nc(-c3ccc(OCC(=O)NCCNC(=O)CCC(=O)O)cc3)[nH]c2n(CCC)c1=O`, the Ki in assay [2] was 0.252 µM; in [3] it was 0.078 µM; in assay [4] it was 40.6 µM. Also, the Ratio in assay [1] was 520.

Consider `Cn1c(=O)c2c(nc(/C=C/c3cccc(Cl)c3)n2C)n(C)c1=O`, for which the inhibition in assay [6] turned out to be 4.2%.

For `Cn1c(=O)c2nc(CCCC(=O)O)[nH]c2n(C)c1=O`, the inhibition in [9] turned out to be 0%; in assay [10], 26%. Further, the Ratio in assay [1] was less than 1.

Take `CCCn1c(=O)c2nc(-c3ccc(OCC(=O)NCCNC(=O)CNCC(=O)O)cc3)[nH]c2n(CCC)c1=O`: the Ratio in assay [1] is 2700.

As to `CCCn1c(=O)c2[nH]c(-c3ccc(S(=O)(=O)O)cc3)nc2n(CCC)c1=O`, in assay [4], the affinity corresponds to a Ki of 90.1 µM.

In assay [4], `CCCn1c(=O)c2[nH]c(-c3ccc(OCC(=O)NCCN)cc3)nc2n(CCC)c1=O` [XANTHINE AMINE CONGENER] showed a Ki of 29 µM. Against the preceding molecule, the Ki is about 3.1-fold lower.

Regarding `C=CCn1c(=O)c2nc(-c3ccc(OCC(=O)O)cc3)[nH]c2n(CC=C)c1=O`, in assay [1], the Ratio was 230.

As to `CCCCn1c(=O)c2c(nc(/C=C/C(=O)OC)n2C)n(CCCC)c1=O`, the Ki in assay [2] amounted to 5.85 µM; in [3], 0.793 µM.

For the molecule `CCCCn1c(=O)c2[nH]cnc2n(CCCC)c1=O`, the figures for the Ki in [2] and in [3] were 29.3 µM and 0.5 µM, respectively.

For `Cn1c(=O)c2[nH]c(CCCC(=O)O)nc2n(C)c1=O`, the affinity in assay [4] corresponds to a Ki of 93.4 µM.
